Here are results for one sequence from publication PMC5538626, “Structural and functional analysis of the GABARAP interaction motif (GIM)” (EMBO Reports, 2017).

The test addresses T1, LC3B (Homo sapiens, UniProt Q9GZQ8).
T1 construct: modified Ub-leader (ubiquitin fusion leader) (N); made in house; host or cells: E. coli NEB T7 Express
Kind of test: ITC titration of PLEKHM1-LIR peptides into LC3B. Conditions: ITC, 25°C, pH 7.0; for ΔH: VP-ITC, one-site model, 0.4 mM peptide into 0.020 mM protein, 50 mM Na2HPO4, 100 mM NaCl. Type of test: binding. As for the experimental part:
The genes for the truncated LC3A^2–121, LC3C^8–125, GABARAP^2–117 and GABARAP‐L1^2–117 proteins were cloned into pET30ΔSE vector between the BamHI and XhoI sites using previously established protocols 38. The chimeric constructs of the PLEKHM1‐LIR attached to the LC3A, GABARAP and GABARAP‐L1 proteins were prepared by inserting the oligonucleotide sequence corresponding to the PLEKHM1‐LIR peptide (P^629[…]^638) and glycine–serine linker into the BamHI site of the pET30ΔSE vector, placing the PLEKHM1‐LIR at the N‐terminal of the mature chimeric protein (similar to 31, 38). For the expression of human LC3 and GABARAP proteins for ITC and NMR experiments, plasmids with appropriate modified Ub‐leaders in pET vectors were used 39. Gene, encoding PLEKHM1‐LIR peptide, was ordered as synthetic oligonucleotides (Eurofins Genomics GmbH) and cloned into the pET39_Ub63_ vector 39 by NcoI–BamHI restriction sites. After TEV cleavage, the resulting peptide has the amino acid sequence GAMG‐P^629[…]^642, where the first four residues (GAMG) are the cloning artefact.
The chimeric constructs were expressed as a His‐tag fusion protein in E. coli BL21(DE3) cells. The cells were induced with 0.3 mM IPTG at OD600 0.6 for 16 h at 26°C. The cell pellets were lysed using mechanical sonication in lysis buffer (20 mM Tris–HCl pH 9.0, 100 mM NaCl, 10 mM imidazole, supplemented with 0.1% Triton X‐100). The proteins were purified using Ni‐NTA beads (GE Healthcare) and the His‐tag was cleaved using thrombin (Invitrogen) at room temperature for 16 h. The last step was gel filtration chromatography using a Superdex S200/300 GL column (GE Healthcare). The proteins were concentrated using spin concentrators (Vivaspin). For ITC and NMR studies, the non‐labelled and stable isotopes labelled LC3 and GABARAP proteins were obtained based on the protocols described elsewhere 30, 39. Here, E. coli NEB T7 Express culture transformed with corresponding plasmids were grown till OD600 nm = 1.0 and protein expression was induced with 0.2 mM IPTG. The cultures were incubated at 25°C for 8–12 h before cell harvesting. Isolation and purification procedures were similar to those reported in Ref. 22, 40. Before experiments, all proteins and peptides were equilibrated with a buffer containing 50 mM Na2HPO4, 100 mM NaCl at pH 7.0, and supplied with 5 mM protease inhibitor cocktail.
The protocol for preparation of non‐labelled and ^13C,^15N‐labelled PLEKHM1‐LIR peptide was slightly modified to achieve highest yield of the peptide. The 50 ml M9 culture was inoculated with NEB T7 cell transformed with pET39_Ub63‐PLEKHM1‐LIR plasmid and grown overnight at 37°. The collected cells were resuspended in 2 l of either LB or M9 media contained 1.5 g ^15N‐labelled NH4Cl and 3.0 g of ^13C‐labelled glucose. The cultures were grown at 37° till A(600 nm) = 0.9 and supplied with 1 mM of IPTG to induce Ub63‐PLEKHM1‐LIR overexpression (3 h at 37°). After that cells were harvested by centrifugation, re‐suspended in buffer contained 50 mM Tris–HCl pH = 7.9, 200 mM NaCl, 5% glycerol, 0.1 mg/ml DNase A and 4 mM protease inhibitor cocktail. After cell lysis by French press, debris was removed by centrifugation and clear supernatant was applied onto the column contained Ni‐NTA Sepharose equilibrated with the loading buffer (50 mM Tris–HCl pH = 7.9, 250 mM NaCl, 1% glycerol and 20 mM imidazole). Elution was performed with 400 mM imidazole in the same buffer. An aliquot of pure Ub63‐PLEKHM1‐LIR fractions was further purified by gel filtration on Superdex75 26 × 60 column for control ITC and analytical size exclusion chromatography experiments, remaining fusion protein was processed with the TEV‐protease and PLEKHM1‐LIR peptide was purified to 95% purity by reverse Ni‐NTA chromatography and followed gel filtration on Superdex75 26 × 60 column. Peak maximum of peptide was detected at […] (void volume 115 ml). Pure peptide was concentrated in Amicon concentrators with cut‐off of 3 kDa (> 95% retention). […]
A general note: ITC needs no label: the signal is the heat of the interaction.

Ends that are not written are not given here.

With GAMGPQQEDEWVNVQYPD [PLEKHM1‐LIR WT], the ΔH is -5.8 ± 0.2 kcal/mol, the KA is on record as 0.16 ± 0.01 ×10^6 M^−1, the “N (number of binding sites)” value is 1.06 ± 0.01 and the ΔG is -7.09 kcal/mol. For the same sequence, the ΔS entry is recorded as “+4.27 cal mol^−1 K^−1” and the “−T × ΔS” value is -1.27 kcal/mol. Further, where the note is “listed as PLEKHM1-LIR”, the ΔH is -5.8 ± 0.2 kcal/mol, the KA is recorded as 0.16±0.01 ×10^6 M^−1, the ΔG was -7.09 kcal/mol and the “−T × ΔS” value was -1.27 kcal/mol.
